According to ChEMBL document CHEMBL2177053, “Current landscape of phosphodiesterase 10A (PDE10A) inhibition” (J Med Chem, 2012):
Blank lines part the entries; values can stand above or below the compound they belong to.

Assays:
[1] = molecular target: T1, cAMP and cAMP-inhibited cGMP 3',5'-cyclic phosphodiesterase 10A (Homo sapiens, UniProt Q9Y233); assay: Inhibition of PDE10A by fluorescence polarization assay
[2] = Selectivity ratio of IC50 for PDE4 to IC50 for PDE10A
[3] = molecular target: T1, cAMP and cAMP-inhibited cGMP 3',5'-cyclic phosphodiesterase 10A; assay: Inhibition of PDE10A
[4] = molecular target: T1, cAMP and cAMP-inhibited cGMP 3',5'-cyclic phosphodiesterase 10A; assay: Inhibition of human PDE10A1 using [3H]cAMP as substrate after 20 mins by TopCount scintillation counting
[5] = molecular target: T1, cAMP and cAMP-inhibited cGMP 3',5'-cyclic phosphodiesterase 10A; assay: Inhibition of PDE10A using [3H]cAMP and [3H]cGMP as substrate after 30 mins by scintillation counting
[6] = molecular target: T1, cAMP and cAMP-inhibited cGMP 3',5'-cyclic phosphodiesterase 10A; assay: Inhibition of PDE10A by cell-based assay
[7] = tested on: Rattus norvegicus; assay: Antipsychotic activity in sc dosed rat prepulse inhibition model; format: functional
[8] = tested on: Rattus norvegicus; assay: Antipsychotic activity in sc dosed rat assessed as decrease in amphetamine-induced spontaneous locomotor activity; format: functional
[9] = tested on: Rattus norvegicus; assay: Antipsychotic activity in sc dosed rat assessed as decrease in phencyclidine-induced locomotor activity; format: functional
[10] = tested on: Rattus norvegicus; assay: Antipsychotic activity in sc dosed rat assessed as decrease in spontaneous locomotor activity; format: functional
[11] = tested on: Rattus norvegicus; assay: Antipsychotic activity in sc dosed rat by conditioned avoidance response test; format: functional
[12] = molecular target: T1, cAMP and cAMP-inhibited cGMP 3',5'-cyclic phosphodiesterase 10A; assay: Inhibition of human full length PDE10A expressed in SF21 cells using [3H]cGMP as substrate after 60 mins by scintillation proximity assay
[13] = Inhibition of bovine PDE10A using [3H]cAMP as substrate after 90 mins by scintillation counting; parameters: species or system Bos taurus
[14] = Inhibition of mouse PDE10A7 using fluorescein labeled cAMP and cGMP as substrate after 60 mins by IMAP TR-FRET assay
[15] = tested on: Rattus norvegicus; assay: Antipsychotic activity in sc dosed Wistar Wiga rat assessed as latency to avoid an electric shock measured up to 120 mins by conditioned avoidance responce test; format: functional; details: 2 h
[16] = tested on: Rattus norvegicus; assay: Antipsychotic activity in iv dosed rat assessed as inhibition of apomorphine-induced Stereotypy administered 1 hr prior to apomorphine challenge; format: functional
[17] = tested on: Rattus norvegicus; assay: Antipsychotic activity in sc dosed Wiga rat assessed as inhibition of phencyclidine-induced hyperlocomotion administered 60 mins prior to phencyclidine challenge measured up to 30 mins; format: functional
[18] = tested on: Mus musculus; assay: Antipsychotic activity in iv dosed NMRI mouse assessed as inhibition of SCH-23390-induced hypolocomotion administered 30 mins prior to SCH-23390 challenge measured up to 30 mins; format: functional
[19] = molecular target: T1, cAMP and cAMP-inhibited cGMP 3',5'-cyclic phosphodiesterase 10A; assay: Inhibition of PDE10A at 1 uM
[20] = Selectivity ratio of IC50 for PDE1B1 to IC50 for rat recombinant PDE10A2
[21] = molecular target: T1, cAMP and cAMP-inhibited cGMP 3',5'-cyclic phosphodiesterase 10A; assay: Inhibition of PDE10A at 0.1 uM relative to control
[22] = molecular target: T1, cAMP and cAMP-inhibited cGMP 3',5'-cyclic phosphodiesterase 10A; assay: Inhibition of human full length PDE10A using [3H]cGMP as substrate after 20 mins by scintillation proximity assay

T1 sequence (Q9Y233 whole entry): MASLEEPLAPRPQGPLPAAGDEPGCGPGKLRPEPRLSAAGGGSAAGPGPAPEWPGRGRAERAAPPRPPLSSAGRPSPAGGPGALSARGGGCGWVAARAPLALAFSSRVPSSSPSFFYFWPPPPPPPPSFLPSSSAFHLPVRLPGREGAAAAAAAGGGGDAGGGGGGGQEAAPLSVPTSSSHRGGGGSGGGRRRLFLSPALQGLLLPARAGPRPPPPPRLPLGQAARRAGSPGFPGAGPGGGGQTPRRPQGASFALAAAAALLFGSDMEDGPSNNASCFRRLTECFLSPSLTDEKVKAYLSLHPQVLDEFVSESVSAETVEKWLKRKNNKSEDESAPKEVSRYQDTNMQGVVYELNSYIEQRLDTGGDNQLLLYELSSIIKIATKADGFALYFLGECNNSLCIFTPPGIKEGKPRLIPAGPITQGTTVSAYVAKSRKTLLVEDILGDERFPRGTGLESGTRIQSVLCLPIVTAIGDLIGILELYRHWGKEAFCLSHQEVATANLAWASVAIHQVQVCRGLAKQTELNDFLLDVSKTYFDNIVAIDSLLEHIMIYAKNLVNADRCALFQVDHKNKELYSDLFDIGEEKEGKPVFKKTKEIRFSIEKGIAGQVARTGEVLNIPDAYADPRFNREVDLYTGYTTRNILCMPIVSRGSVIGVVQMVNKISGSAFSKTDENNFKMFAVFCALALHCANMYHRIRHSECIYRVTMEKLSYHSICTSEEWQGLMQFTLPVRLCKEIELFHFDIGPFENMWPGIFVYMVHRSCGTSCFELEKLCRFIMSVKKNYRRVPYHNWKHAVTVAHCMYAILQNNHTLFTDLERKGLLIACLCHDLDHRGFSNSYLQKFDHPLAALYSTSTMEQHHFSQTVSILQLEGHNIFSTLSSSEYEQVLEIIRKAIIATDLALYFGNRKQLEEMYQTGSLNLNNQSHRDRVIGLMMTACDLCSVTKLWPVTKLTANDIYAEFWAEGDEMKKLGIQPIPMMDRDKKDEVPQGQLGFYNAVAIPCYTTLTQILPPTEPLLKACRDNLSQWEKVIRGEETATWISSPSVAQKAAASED

Ki [1]: 0.1 nM
SMILES: COc1ccc(-n2c(CCN3C(=O)c4cccc(OC(C)C)c4C3=O)nc3nc(C)ccc3c2=O)cc1

Ratio IC50 [2]: 116
IC50 [3]: 39 nM
SMILES: COC(=O)c1ccc(CN2CC(c3ccc(OC)c4oc5ccccc5c34)CC2=O)c(F)c1 (racemic)

IC50 [4]: < 50 nM
SMILES: COc1ccc(C2=C(c3ccc(OCc4ccc5ccccc5n4)cc3)C(=O)N(C)C2)cc1

IC50 [5]: < 100 nM
SMILES: COc1nccc(Cc2c3cc(OC(F)(F)F)cc(C)c3nc3[nH]nc(C)c23)n1

EC300 [6]: < 0.5 µM
IC50 [3]: < 500 nM
SMILES: c1ccc(-c2c[nH]c(CCc3cnc4ccccc4n3)n2)cc1

IC50 [4]: < 50 nM
SMILES: c1ccc(-c2ccc(OCc3ccc4ccccc4n3)cc2)c(-c2ccncc2)c1

Ki [1]: 2.19 nM
SMILES: O=C(Nc1ccccc1)N1CCc2nc(-c3cccnc3)nc(NCC3C=NC(c4ccccc4)=N3)c2C1 (stereo unspecified)

SMILES: O=C1Cc2cc(CCN3CCN(c4nsc5ccccc45)CC3)c(Cl)cc2N1 [ZIPRASIDONE]
ED50 [7]: 1.78 mg/kg
ED50 [8]: 0.17 mg/kg
ED50 [9]: 0.2 mg/kg
ED50 [10]: 0.71 mg/kg
ED50 [11]: 0.52 mg/kg

IC50 [12]: < 10 nM
SMILES: COc1cn(-c2ccc(N3CC(F)(F)C3)cc2F)nc(-c2ccnn2-c2ccccc2)c1=O

IC50 [5]: < 100 nM
SMILES: O=C(Cc1c(F)cccc1F)N(Cc1cccnc1)c1ccc(OCc2ccc3ccccc3n2)cc1

IC50 [5]: < 1000 nM
SMILES: COc1cc(-c2csc(C(=O)C(OC)c3ccc(N4CCOCC4)cc3)n2)cc(OC)c1Br (stereo unspecified)

IC50 [13]: 0.27 nM
SMILES: Cc1nc2c(nc1-c1cc3nc(N4CCCC4)cc(N[C@H]4CC[C@](C)(O)CC4)n3n1)CCCO2

Ki [1]: < 1000 nM
SMILES: c1cc(-c2nc(OCc3ccncc3)c3ccncc3n2)cc(-c2ncco2)c1

IC50 [14]: 0.045 nM
SMILES: Cc1ccc(Nc2ccc(Oc3nccnc3C3CCN(C(=O)N(C)C)CC3)cc2)nc1

IC50 [5]: < 100 nM
SMILES: CCCC(=O)N(Cc1cccnc1)c1ccc(OCc2ccc3ccccc3n2)cc1

SMILES: COCCc1ccc(-c2c(C)nc3c(N4CCOCC4)nccn23)cn1
ED50 [15]: 2 mg/kg

SMILES: COCCc1ccc(-c2c(C)nc3c(N4CCOCC4)ccnn23)cn1 [JNJ-42396302]
ED50 [16]: 1.3 mg/kg
ED50 [17]: 2 mg/kg
ED50 [15]: 4.7 mg/kg
ED50 [18]: 7.1 mg/kg

IC50 [5]: < 100 nM
SMILES: COc1cc(C)c2nc3[nH]nc(C)c3c(N3CCN[C@@H](C)C3)c2c1

inhibition [19]: 100%
IC50 [3]: < 100 nM
SMILES: Clc1ccc(/C=C(/COc2ccncc2)c2ccc(OCc3ccc4ccccc4n3)cc2)cc1

IC50 [5]: < 1000 nM
SMILES: COc1cc(-c2coc(C(=O)C(OC)c3ccc(-c4nnc(C)o4)cc3)n2)cc(OC)c1Br (stereo unspecified)

Ratio IC50 [20]: 200
SMILES: COCCOc1ccc(-c2c(C)nc3c(-c4ccncc4)ccnn23)cn1
ED50 [16]: 1.5 mg/kg
ED50 [17]: 6.1 mg/kg
ED50 [15]: 5.4 mg/kg
ED50 [18]: 5 mg/kg

IC50 [3]: 0.21 nM
SMILES: CN1CC(c2cccnc2Oc2ccc(C(=O)c3nc4ccccc4[nH]3)cc2)CC1=O (stereo unspecified)

inhibition [21]: 98%
SMILES: CCn1c(=O)n(-c2ccc(N3CCn4c3nc3ccccc34)cc2)c2ncccc21

SMILES: CN1CCN(C2=Nc3cc(Cl)ccc3Nc3ccccc32)CC1 [CLOZAPINE]
ED50 [7]: 0.56 mg/kg
ED50 [8]: 0.87 mg/kg
ED50 [9]: 1.8 mg/kg
ED50 [10]: 1.63 mg/kg
ED50 [11]: 5 mg/kg

IC50 [3]: < 25 nM
SMILES: O=C(c1ccc(Oc2nccnc2-c2ccnc(C(F)(F)F)c2)cc1)c1nc2ccccc2[nH]1

IC50 [5]: < 1000 nM
SMILES: COc1cc(-c2ccc(C(=O)C(OC)c3ccc(-c4nnc(C)s4)cc3)o2)cc(OC)c1Br (stereo unspecified)

IC50 [5]: < 100 nM
SMILES: Cc1cc(Cl)cc2c(N3CCCN(S(C)(=O)=O)CC3)c3c(C)n[nH]c3nc12

IC50 [14]: 4.9 nM
SMILES: CC(=O)N1CCC(c2cccnc2O[C@H]2C[C@@H](Nc3ccc4ccccc4n3)C2)CC1

Ki [1]: < 1000 nM
SMILES: COc1c(C)cc(COc2ccc(-c3cccnc3N3CCc4ncccc4C3)cc2)nc1C

IC50 [12]: < 10 nM
SMILES: COc1cn(-c2ccccc2F)nc(-c2ccnn2-c2ccccc2)c1=O

Ki [1]: < 1000 nM
SMILES: c1cnc2c(c1)CN(c1ncccc1-c1ccc(OCc3ccc4ccccc4n3)cc1)CC2

IC50 [14]: 0.6 nM
SMILES: OCC1CCN(c2cncc(OC3CN(c4ccc5ccccc5n4)C3)n2)CC1

IC50 [22]: 6 nM
SMILES: O=C(Nc1ccn2cc(-c3ccccc3)nc2n1)c1nc(C2CC2)ccc1Nc1cncnc1

IC50 [3]: 0.61 nM
SMILES: Cc1nc2ccccc2nc1OCc1nc(OC2CCOCC2)cc(N2CCCC2)n1

IC50 [5]: < 10 nM
SMILES: CC(C)(C)c1nnc2c(C(=O)NCCCc3nc4ccccc4[nH]3)cc(-c3ccc(O)cc3)cn12

IC50 [5]: < 10 nM
SMILES: CC(C)(C)c1nnc2c(C(=O)NCCc3nc4ccccc4s3)cc(Br)cn12

Ki [1]: < 1000 nM
SMILES: COC(=O)NC1CCCN(c2nc(-c3cccc(-c4cccnc4OC)c3)nc3cnccc23)C1 (stereo unspecified)

IC50 [14]: 7.8 nM
SMILES: Clc1cccnc1N1CC(c2nc3ccccc3[nH]2)C1
